Source: the supplement of paper PMC10307832

Experiments:
Assay in all cases: relative viability (nuclei count vs DMSO), 5 days (fraction); higher = more cells survive
A-427 = tested on: A-427
How it was run: (§1)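 For relative viability, nuclei counts in treated wells were divided by those in vehicle wells. Lung cancer cell lines had been pin-tool dosed in 1536-well plates the day after seeding and cultured for 5 days, then fixed and stained in one step (final 0.05% Triton X-100, 1% formaldehyde, 1 ug/ml Hoechst) and imaged at 4×. Doses were one drug alone or a fixed anchor-drug dose plus five library-drug doses (not always all listed) in √10 steps, and values are duplicate-plate medians.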

COR-L 105 = tested on: COR-L 105
How it was run: as §1

EKVX = tested on: EKVX
How it was run: as §1

EMC-BAC-2 = tested on: EMC-BAC-2
How it was run: as §1

H3255 = tested on: H3255
How it was run: as §1

HCC-366 = tested on: HCC-366
How it was run: as §1

LK-2 = tested on: LK-2
How it was run: as §1

LOU-NH91 = tested on: LOU-NH91
How it was run: as §1

NCI-H1563 = tested on: NCI-H1563
How it was run: as §1

NCI-H1666 = tested on: NCI-H1666
How it was run: as §1

NCI-H1734 = tested on: NCI-H1734
How it was run: as §1

NCI-H1755 = tested on: NCI-H1755
How it was run: as §1

NCI-H1792 = tested on: NCI-H1792
How it was run: as §1

NCI-H1975 = tested on: NCI-H1975
How it was run: as §1

NCI-H2170 = tested on: NCI-H2170
How it was run: as §1

NCI-H23 = tested on: NCI-H23
How it was run: as §1

NCI-H520 = tested on: NCI-H520
How it was run: as §1

NCI-H596 = tested on: NCI-H596
How it was run: as §1

PC-3 [JPC-3] = tested on: PC-3 [JPC-3]
How it was run: as §1

SK-MES-1 = tested on: SK-MES-1
How it was run: as §1

Oc1nc(-c2ccc(C(F)(F)F)cc2)nc2c1CSCC2 [XAV939] + CS(=O)(=O)CCNCc1ccc(-c2ccc3ncnc(Nc4ccc(OCc5cccc(F)c5)c(Cl)c4)c3c2)o1 [Lapatinib] (partner 2 µM)
relative viability (A-427; first compound 0.08 µM): 1.09
relative viability (A-427; first compound 0.253 µM): 1.02
relative viability (A-427; first compound 0.8 µM): 1.11
relative viability (A-427; first compound 2.53 µM): 1.03
relative viability (COR-L 105; first compound 0.08 µM): 0.426
relative viability (COR-L 105; first compound 0.253 µM): 0.347
relative viability (COR-L 105; first compound 0.8 µM): 0.37
relative viability (COR-L 105; first compound 2.53 µM): 0.301
relative viability (EKVX; first compound 0.08 µM): 0.193
relative viability (EKVX; first compound 0.253 µM): 0.181
relative viability (EKVX; first compound 0.8 µM): 0.162
relative viability (EKVX; first compound 2.53 µM): 0.125
relative viability (EMC-BAC-2; first compound 0.08 µM): 1.01
relative viability (EMC-BAC-2; first compound 0.253 µM): 0.821
relative viability (EMC-BAC-2; first compound 0.8 µM): 0.837
relative viability (EMC-BAC-2; first compound 2.53 µM): 0.681
relative viability (H3255; first compound 0.08 µM): 0.19
relative viability (H3255; first compound 0.253 µM): 0.238
relative viability (H3255; first compound 0.8 µM): 0.233
relative viability (H3255; first compound 2.53 µM): 0.186
relative viability (HCC-366; first compound 0.08 µM): 1.23
relative viability (HCC-366; first compound 0.253 µM): 0.861
relative viability (HCC-366; first compound 0.8 µM): 1.01
relative viability (HCC-366; first compound 2.53 µM): 0.96
relative viability (LK-2; first compound 0.08 µM): 0.979
relative viability (LK-2; first compound 0.253 µM): 0.981
relative viability (LK-2; first compound 0.8 µM): 1.04
relative viability (LK-2; first compound 2.53 µM): 0.928
relative viability (LOU-NH91; first compound 0.08 µM): 0.73
relative viability (LOU-NH91; first compound 0.253 µM): 0.695
relative viability (LOU-NH91; first compound 0.8 µM): 0.696
relative viability (LOU-NH91; first compound 2.53 µM): 0.628
relative viability (NCI-H1563; first compound 0.08 µM): 1.15
relative viability (NCI-H1563; first compound 0.253 µM): 0.852
relative viability (NCI-H1563; first compound 0.8 µM): 0.809
relative viability (NCI-H1563; first compound 2.53 µM): 0.773
relative viability (NCI-H1666; first compound 0.08 µM): 0.571
relative viability (NCI-H1666; first compound 0.253 µM): 0.415
relative viability (NCI-H1666; first compound 0.8 µM): 0.442
relative viability (NCI-H1666; first compound 2.53 µM): 0.353
relative viability (NCI-H1734; first compound 0.08 µM): 1.34
relative viability (NCI-H1734; first compound 0.253 µM): 0.9
relative viability (NCI-H1734; first compound 0.8 µM): 0.814
relative viability (NCI-H1734; first compound 2.53 µM): 0.986
relative viability (NCI-H1755; first compound 0.08 µM): 0.92
relative viability (NCI-H1755; first compound 0.253 µM): 0.87
relative viability (NCI-H1755; first compound 0.8 µM): 0.896
relative viability (NCI-H1755; first compound 2.53 µM): 0.955
relative viability (NCI-H1792; first compound 0.08 µM): 1.14
relative viability (NCI-H1792; first compound 0.253 µM): 0.523
relative viability (NCI-H1792; first compound 0.8 µM): 0.805
relative viability (NCI-H1792; first compound 2.53 µM): 0.806
relative viability (NCI-H1975; first compound 0.08 µM): 0.733
relative viability (NCI-H1975; first compound 0.253 µM): 0.655
relative viability (NCI-H1975; first compound 0.8 µM): 0.753
relative viability (NCI-H1975; first compound 2.53 µM): 0.646
relative viability (NCI-H2170; first compound 0.08 µM): 0.259
relative viability (NCI-H2170; first compound 0.253 µM): 0.263
relative viability (NCI-H2170; first compound 0.8 µM): 0.267
relative viability (NCI-H2170; first compound 2.53 µM): 0.261
relative viability (NCI-H23; first compound 0.08 µM): 1.17
relative viability (NCI-H23; first compound 0.253 µM): 1.01
relative viability (NCI-H23; first compound 0.8 µM): 0.966
relative viability (NCI-H23; first compound 2.53 µM): 0.932
relative viability (NCI-H520; first compound 0.08 µM): 0.83
relative viability (NCI-H520; first compound 0.253 µM): 0.78
relative viability (NCI-H520; first compound 0.8 µM): 0.792
relative viability (NCI-H520; first compound 2.53 µM): 0.682
relative viability (NCI-H596; first compound 0.08 µM): 1.21
relative viability (NCI-H596; first compound 0.253 µM): 1.12
relative viability (NCI-H596; first compound 0.8 µM): 1.1
relative viability (NCI-H596; first compound 2.53 µM): 0.656
relative viability (PC-3 [JPC-3]; first compound 0.08 µM): 0.454
relative viability (PC-3 [JPC-3]; first compound 0.253 µM): 0.417
relative viability (PC-3 [JPC-3]; first compound 0.8 µM): 0.435
relative viability (PC-3 [JPC-3]; first compound 2.53 µM): 0.443
relative viability (SK-MES-1; first compound 0.08 µM): 0.499
relative viability (SK-MES-1; first compound 0.253 µM): 0.389
relative viability (SK-MES-1; first compound 0.8 µM): 0.424
relative viability (SK-MES-1; first compound 2.53 µM): 0.406
